Like-named read-outs stand apart in the source and are kept apart here.
What was measured:
[1] = system: MDA468; assay: MTT cytotoxicity assay, MDA468 cells; assay type: cell-based, human; conditions: for IC50: Homo sapiens, MTT assay, 96 h incubation, read-out: IC50 MDA468; for TS = tumour selectivity = IC50 MCF10A/IC50 MDA468: ratio of IC50 values
Protocol: (§1) The antiproliferative activity of the resveratrol analogues was investigated using a human breast cell line panel, which has been characterised for CYP1 expression in our laboratories. IC50 values for both cis- and trans-isomers were determined using a standard 3-[4,5-dimethylthiazol-2-yl]-2,5-diphenyl tetrazolium bromide (MTT) cell viability assay and are shown in Table 1 (trans-stilbene analogues) and Table 2 (cis-stilbene analogues).
MDA468 cells represent an aggressive multi-drug-resistant tumour type and are ER negative but are aryl hydrocarbon (Ah) receptor positive in the presence of TCDD [46].
(§2) A standard MTT (3-[4,5-dimethylthiazol-2-yl]-2,5-diphenyl tetrazolium bromide) cell viability assay was employed to evaluate the cytotoxicity of the stilbenes prepared. The MTT assay is a rapid quantitative spectrophotometric method for determining cell growth (viability) due to necrosis or apoptosis in monolayer-cultured cell lines in response to external factors. It is widely employed to evaluate the cytotoxicity of potential medicinal agents.
(§3) MCF7 cells were grown in RPMI-1640 medium with phenol red and 10% (v/v) heat-inactivated (heated to 56 °C for 45 min) foetal calf serum. MDA-468 cells were grown in RPMI-1640 medium with 10% (v/v) heat-inactivated foetal calf serum and L-glutamine (2 mM) without phenol red. MCF-10A cells were grown in Dulbecco’s modified Eagle’s medium/ Ham’s F-12 medium (1:1) with 5% (v/v) heat-inactivated foetal calf serum, epidermal growth factor (20 ng/mL), insulin ([…]) and hydrocortisone (500 ng/mL). Cells were maintained at 37 °C, 5% CO2/95% air with 100% humidity and passaged every 2–3 days using trypsin EDTA solution (0.25% w/v). Adhered cells at sub confluence were harvested for experimental use.
(§4) Aliquots of cell suspensions (100 µL at 2 × 10^3 cells per ml) were dispensed into sterile 96-well microtiter flat-bottomed plates. For the MDA468 and MCF10A cell lines, the plates were incubated at 37 °C, 5% CO2/95% air with 100% humidity for 24 h prior to the addition of test compounds. For MCF7 cells, after allowing approximately 4 h for cells to adhere, 100 µL of medium containing TCDD (from 100 mM stock in DMSO) or medium with 0.2% (v/v) DMSO was added to give a final concentration of 10 nM TCDD and 0.1% (v/v) DMSO. After 24 h, the medium was aspirated and replaced with fresh medium (100 µL) before the addition of test compounds.
(§5) Then, 100 µL aliquots of test compounds were added within 30 min into the wells from a 100 mM stock solution in DMSO and serially diluted to give final concentrations of […], 0.01, 0.003, 0.001 and 0.0003 µM. […] The cells were allowed to grow for 96 h at 5% CO2, 37 °C, to give 80–90% confluence in the control wells, after which 50 µL of 2 mg/mL MTT (final concentration 0.4 mg/mL) in sterile phosphate buffer was added to each well and the plates were further incubated for 2 h. All medium was aspirated and the formazan precipitate generated by viable cells was solubilised by 150 µL of DMSO. All the plates were vortexed and the absorbance at 540 nm was determined using a SpectraMax M5 plate reader (Molecular Devices, Wokingham, UK).
(§6) Results were expressed as a percentage of the control value versus the negative logarithm of the molar drug concentration range using GraphPad Prism (Version 5.00). Relative toxicities of each compound within each cell line were expressed as 50% of growth inhibition (IC50). All determinations were carried out in quadruplicate.

[2] = system: MCF10A; assay: MTT cytotoxicity assay, MCF10A non-tumour control cells; assay type: cell-based; conditions: Homo sapiens, MCF-10A, MTT assay, 96 h incubation, non-tumour control cells, read-out: IC50 MCF10A
Protocol: as §1
MCF10A cells are non-tumourigenic human mammary epithelial in origin which have been spontaneously immortalised without chemical intervention. CYP1 activity in MCF10A cells is negligible. […] Thus, MCF10A cell line is commonly used as a control in cytotoxicity assays.
as §2, §3, §4, §5, §6

[3] = system: MCF7 (TCDD); assay: MTT cytotoxicity assay, TCDD-induced MCF7 cells; assay type: cell-based, human; conditions: for IC50: Homo sapiens, MCF7, MTT assay, 96 h incubation, cells induced with 10 nM TCDD for 24 h, read-out: IC50 MCF7 (TCDD)
Protocol: as §1
(§7) MCF7 cells are both ER positive and Ah receptor positive and have been well documented for their CYP1 expression, and it is known that treatment with TCDD elevates CYP1A1 and CYP1B1 expression. The cells were treated with DMSO (0.1%) for 24 h for constitutive expression, whereas for inducible CYP1 expression, the cells were treated with TCDD (10 nM) for 24 h.
as §2, §3, §4, §5, §6

[4] = system: human breast cell line panel; assay: MTT cytotoxicity assay, statements for all cell lines of the panel; assay type: cell-based; conditions: MCF7, MCF7 (TCDD), MCF10A, MDA468, summary of the text; for IC50: Homo sapiens, read-out: IC50 for all cell lines tested
Protocol: as §1, §2, §3, §4, §5, §6

[5] = system: MCF7; assay: MTT cytotoxicity assay, MCF7 cells (uninduced); assay type: cell-based, human; conditions: Homo sapiens, MTT assay, 96 h incubation, 37 °C, means of quadruplicate, read-out: IC50 MCF7
Protocol: as §1, §7, §2, §3, §4, §5, §6

COc1cc(/C=C\c2ccccc2)cc(OC)c1OC [DMU508]
IC50 [1]: 9 µM
TS = tumour selectivity = IC50 MCF10A/IC50 MDA468 [1]: 0.9
IC50 ([2]; 96 h): 7 µM
IC50 [3]: 4 µM
IC50 [4]: 4 to 9 µM
IC50 ([5]; MCF7, 96 h): 5 µM

COc1ccc(C=Cc2cc(OC)c(OC)c(OC)c2)cc1O [DMU214, 3,4,5,4′-tetramethoxy-3′-hydroxy stilbene]
IC50 [1]: 0.05 µM
TS = tumour selectivity = IC50 MCF10A/IC50 MDA468 [1]: 1
IC50 ([2]; 96 h): 0.05 µM
IC50 [3]: 0.11 µM
IC50 for all cell lines tested [4]: sub-micromolar IC50 values
IC50 ([5]; MCF7, 96 h): 0.06 µM

COc1ccc(/C=C/c2cc(OC)c(OC)c(OC)c2)cc1OC [DMU2417]
IC50 [1]: 9 µM
TS = tumour selectivity = IC50 MCF10A/IC50 MDA468 [1]: 2
IC50 ([2]; 96 h): 18 µM
IC50 [3]: 14 µM
IC50 [4]: > 9 µM
IC50 ([5]; MCF7, 96 h): 14 µM

COc1ccc(/C=C/c2cc(OC)c(O)c(OC)c2)cc1 [DMU291]
IC50 [1]: 1 µM
TS = tumour selectivity = IC50 MCF10A/IC50 MDA468 [1]: 100
IC50 ([2]; 96 h): 100 µM
IC50 [3]: 20 µM
IC50 ([5]; MCF7, 96 h): 20 µM

COc1cc(/C=C\c2ccc(Br)cc2)cc(OC)c1OC [DMU558]
IC50 [1]: 0.04 µM
TS = tumour selectivity = IC50 MCF10A/IC50 MDA468 [1]: 1
IC50 [2]: 0.05 µM
IC50 [3]: 0.05 µM
IC50 ([5]; MCF7): 0.08 µM

COc1cc(/C=C/c2ccc(I)cc2)cc(OC)c1OC [DMU509]
IC50 [1]: 13 µM
TS = tumour selectivity = IC50 MCF10A/IC50 MDA468 [1]: 1
IC50 ([2]; 96 h): 13 µM
IC50 [3]: 15 µM
IC50 ([5]; MCF7, 96 h): 15 µM

COc1cc(/C=C/c2ccc(O)cc2)cc(OC)c1O [DMU295]
IC50 [1]: 5.1 µM
TS = tumour selectivity = IC50 MCF10A/IC50 MDA468 [1]: 10
IC50 ([2]; 96 h): 51 µM
IC50 [3]: 4.2 µM
IC50 ([5]; MCF7, 96 h): 50 µM

COc1cc(/C=C/c2ccc(OC)c3ccccc23)cc(OC)c1OC [DMU569]
IC50 [1]: 4.5 µM
TS = tumour selectivity = IC50 MCF10A/IC50 MDA468 [1]: nine
TS = tumour selectivity = IC50 MCF10A/IC50 MDA468 ([1]; listed as 569): 9
IC50 [2]: 40 µM
IC50 [3]: 8.6 µM
IC50 ([5]; MCF7): 30 µM

CCOc1ccc(/C=C\c2cc(OC)c(OC)c(OC)c2)cc1 [DMU261]
IC50 [1]: 0.07 µM
TS = tumour selectivity = IC50 MCF10A/IC50 MDA468 [1]: 0.9
IC50 [2]: 0.06 µM
IC50 [3]: 0.13 µM
IC50 ([5]; MCF7): 0.04 µM

COc1cc(/C=C/c2ccccc2)cc(OC)c1OC [DMU507]
IC50 [1]: 10 µM
TS = tumour selectivity = IC50 MCF10A/IC50 MDA468 [1]: 7
IC50 ([2]; 96 h): 70 µM
IC50 [3]: 50 µM
IC50 [4]: > 10 µM
IC50 ([5]; MCF7, 96 h): 50 µM

COc1ccc(/C=C\c2cc(OC)c(OC)c(OC)c2)cc1O [CA4, combretastatin A4, reference compound]
IC50 [1]: 0.003 µM
TS = tumour selectivity = IC50 MCF10A/IC50 MDA468 [1]: 0.7
IC50 ([2]; 96 h): 0.002 µM
IC50 [3]: 0.002 µM
IC50 ([5]; MCF7, 96 h): 0.002 µM

CCOc1ccc(/C=C/c2cc(OC)c(OC)c(OC)c2)cc1 [DMU260]
IC50 [1]: 1.8 µM
TS = tumour selectivity = IC50 MCF10A/IC50 MDA468 [1]: two
TS = tumour selectivity = IC50 MCF10A/IC50 MDA468 ([1]; listed as 260): 2
IC50 [2]: 3.7 µM
IC50 [3]: 5 µM
AF = activation factor = IC50 MCF7/MCF7 (TCDD) ([3]; ratio of IC50 values): one
IC50 ([5]; MCF7): 5 µM

COc1ccc(/C=C\c2cc(OC)c(OC)c(OC)c2)cc1OC [DMU1024]
IC50 [1]: 6 µM
TS = tumour selectivity = IC50 MCF10A/IC50 MDA468 [1]: 2
IC50 ([2]; 96 h): 10 µM
IC50 [3]: 9 µM
IC50 ([5]; MCF7, 96 h): 9 µM

COc1ccc(/C=C/c2ccc(OC)c(OC)c2OC)cc1 [DMU547]
IC50 [1]: 4.5 µM
TS = tumour selectivity = IC50 MCF10A/IC50 MDA468 [1]: 4
IC50 [2]: 20 µM
IC50 [3]: 1 µM
IC50 ([5]; MCF7): 80 µM

COc1ccc(/C=C/c2cccc(OC)c2)cc1 [DMU241]
IC50 [1]: > 100 µM
IC50 [2]: > 100 µM
IC50 [3]: 24 µM
IC50 ([5]; MCF7): 27 µM

COc1ccc(/C=C/c2cc(OC)c(OC)c(OC)c2)c(OC)c1 [DMU219]
IC50 [1]: 0.8 µM
TS = tumour selectivity = IC50 MCF10A/IC50 MDA468 [1]: 2
IC50 ([2]; 96 h): 1.4 µM
IC50 [3]: 1.4 µM
IC50 ([5]; MCF7, 96 h): 1.7 µM

COc1ccc(/C=C\c2cc(OC)cc(OC)c2)cc1 [DMU210]
IC50 [1]: > 100 µM
IC50 [2]: > 100 µM
IC50 [3]: 24 µM
IC50 ([5]; MCF7): 26 µM
